What was measured:
PDGFRβ [1] = target: T1, PDGFRβ (Homo sapiens (Human), UniProt P09619); conditions: read-out: Ki PDGFRβ; mean, n = 2 unless otherwise indicated
PAMPA permeability assay = type: in vitro ADME; conditions: for Papp at 5 h, 10 μM: pH 7, pH 7, 10 μM
PDGFRβ [2] = target: T1, PDGFRβ; assay: PDGF-BB induced phosphorylation of PDGFRβ in fibroblasts (MRC5 cells, HTRF); type: cell-based; conditions: MRC5 cells; n = 1 unless otherwise indicated; read-out: PDGFBB-induced PDGFRβ phosphorylation in MRC5 cells (IC50)
MRC5 cells = assay: Cell viability assay in MRC5 cells (MTT)
[3] = PAMPA, pH 7, PAMPA, donor and acceptor compartments
[4] = pH 7, PAMPA, donor and acceptor compartments

T1 sequence (P09619 33-1106): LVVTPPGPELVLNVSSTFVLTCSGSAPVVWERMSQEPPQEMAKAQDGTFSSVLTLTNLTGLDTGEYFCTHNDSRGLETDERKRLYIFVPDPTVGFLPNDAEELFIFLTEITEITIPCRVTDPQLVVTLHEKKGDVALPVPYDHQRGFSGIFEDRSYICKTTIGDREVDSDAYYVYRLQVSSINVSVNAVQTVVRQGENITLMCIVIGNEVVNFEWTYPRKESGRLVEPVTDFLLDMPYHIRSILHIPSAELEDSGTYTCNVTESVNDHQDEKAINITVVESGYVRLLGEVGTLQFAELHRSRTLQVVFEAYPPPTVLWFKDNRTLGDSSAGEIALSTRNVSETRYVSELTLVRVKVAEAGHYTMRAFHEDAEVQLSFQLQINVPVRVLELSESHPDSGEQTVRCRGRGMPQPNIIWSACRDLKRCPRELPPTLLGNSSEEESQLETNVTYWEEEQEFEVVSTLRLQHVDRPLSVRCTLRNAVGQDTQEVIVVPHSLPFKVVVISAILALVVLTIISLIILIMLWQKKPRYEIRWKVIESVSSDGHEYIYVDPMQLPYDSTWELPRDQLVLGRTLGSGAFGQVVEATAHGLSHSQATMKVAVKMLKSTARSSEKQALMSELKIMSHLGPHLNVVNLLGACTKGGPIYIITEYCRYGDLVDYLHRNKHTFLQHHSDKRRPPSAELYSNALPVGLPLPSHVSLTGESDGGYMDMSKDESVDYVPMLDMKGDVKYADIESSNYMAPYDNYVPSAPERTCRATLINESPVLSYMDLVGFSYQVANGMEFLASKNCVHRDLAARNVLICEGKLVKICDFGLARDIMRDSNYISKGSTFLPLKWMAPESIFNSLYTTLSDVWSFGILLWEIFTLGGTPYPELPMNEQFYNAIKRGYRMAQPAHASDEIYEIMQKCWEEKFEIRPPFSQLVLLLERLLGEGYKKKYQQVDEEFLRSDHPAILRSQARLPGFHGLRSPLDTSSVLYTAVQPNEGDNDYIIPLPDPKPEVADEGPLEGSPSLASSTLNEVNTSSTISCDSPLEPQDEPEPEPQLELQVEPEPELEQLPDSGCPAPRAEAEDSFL

COC(=O)c1cc2c(cc1C)/C(=C(/Nc1ccc(C(=O)NOCCCN(C)C)c(C)c1)c1ccccc1)C(=O)N2 [Example 29]
Ki (PDGFRβ [1]): 7.48 nM | recovery at 5 hr, 10 μM (PAMPA permeability assay; [3]): 65.1% | Papp at 5 h, 10 μM (PAMPA permeability assay; PAMPA, 5 hr): 0.00415 ×10⁻⁶ cm/s | IC50 (PDGFRβ [2]): 3.18 nM | Cell viability at 100 nM (%) (MRC5 cells): 92% | Cell viability at 300 nM (%) (MRC5 cells): 85.8% | Cell viability at 1000 nM (%) (MRC5 cells): 91.8%

COC(=O)c1cc2c(cc1C)/C(=C(/Nc1ccc(C(=O)NOC3CCN(C)CC3)cc1)c1ccccc1)C(=O)N2 [Example 30]
Ki (PDGFRβ [1]): 7.32 nM | recovery at 5 hr, 10 μM (PAMPA permeability assay; [3]): 87% | Papp at 5 h, 10 μM (PAMPA permeability assay; PAMPA, 5 hr): 0.00225 ×10⁻⁶ cm/s | IC50 (PDGFRβ [2]): 7.43 nM | Cell viability at 100 nM (%) (MRC5 cells): 96.1% | Cell viability at 300 nM (%) (MRC5 cells): 87.7% | Cell viability at 1000 nM (%) (MRC5 cells): 26%

COC(=O)c1cc2c(cc1C)/C(=C(/Nc1ccc(C(=O)NOCCN3CCN(C)CC3)c(F)c1)c1ccccc1)C(=O)N2 [Example 32]
Ki (PDGFRβ [1]): 4.92 nM | recovery at 5 hr, 10 μM (PAMPA permeability assay; [3]): 42.8% | Papp at 5 h, 10 μM (PAMPA permeability assay; PAMPA, 5 hr): 0.0192 ×10⁻⁶ cm/s | IC50 (PDGFRβ [2]): 3.09 nM | Cell viability at 100 nM (%) (MRC5 cells): 93.5% | Cell viability at 300 nM (%) (MRC5 cells): 82.3% | Cell viability at 1000 nM (%) (MRC5 cells): 66.3%

COC(=O)c1ccc2c(c1)NC(=O)/C2=C(\Nc1ccc(C(=O)NOCCN2CCN(C)CC2)c(F)c1)c1ccccc1 [Example 33]
Ki (PDGFRβ [1]): 8.47 nM | recovery at 5 hr, 10 μM (PAMPA permeability assay; [3]): 71.9% | Papp at 5 h, 10 μM (PAMPA permeability assay; PAMPA, 5 hr): 0.00743 ×10⁻⁶ cm/s | IC50 (PDGFRβ [2]): 8.99 nM | Cell viability at 100 nM (%) (MRC5 cells): 110.7% | Cell viability at 300 nM (%) (MRC5 cells): 101.3% | Cell viability at 1000 nM (%) (MRC5 cells): 91.3%

CCN1CCN(CCONC(=O)c2ccc(N/C(=C3\C(=O)Nc4cc(C(=O)OC)c(C)cc43)c3ccccc3)cc2)CC1 [Example 36]
Ki (PDGFRβ [1]): 8.46 nM | recovery at 5 hr, 10 μM (PAMPA permeability assay; [3]): 53.1% | Papp at 5 h, 10 μM (PAMPA permeability assay; PAMPA, 5 hr): 0.0301 ×10⁻⁶ cm/s | IC50 (PDGFRβ [2]): 9.44 nM | Cell viability at 100 nM (%) (MRC5 cells): 108.8% | Cell viability at 300 nM (%) (MRC5 cells): 93% | Cell viability at 1000 nM (%) (MRC5 cells): 65.9%

COC(=O)c1ccc2c(c1)NC(=O)/C2=C(\Nc1ccc(C(=O)NOCCN2CC[C@H](N(C)C)C2)cc1)c1ccccc1 [Example 38]
Ki (PDGFRβ [1]): 6.91 nM | recovery at 5 hr, 10 μM (PAMPA permeability assay; [3]): 55.4% | Papp at 5 h, 10 μM (PAMPA permeability assay; PAMPA, 5 hr): 0.00569 ×10⁻⁶ cm/s | IC50 (PDGFRβ [2]): 14.6 nM | Cell viability at 100 nM (%) (MRC5 cells): 89.3% | Cell viability at 300 nM (%) (MRC5 cells): 90.8% | Cell viability at 1000 nM (%) (MRC5 cells): 93%

COC(=O)c1ccc2c(c1)NC(=O)/C2=C(\Nc1ccc(C(=O)NOCCN2CCC(O)CC2)cc1)c1ccccc1 [Example 40]
Ki (PDGFRβ [1]): 7.66 nM | recovery at 5 hr, 10 μM (PAMPA permeability assay; [3]): 75% | Papp at 5 h, 10 μM (PAMPA permeability assay; PAMPA, 5 hr): 0.00954 ×10⁻⁶ cm/s | IC50 (PDGFRβ [2]): 29.2 nM | Cell viability at 100 nM (%) (MRC5 cells): 103.8% | Cell viability at 300 nM (%) (MRC5 cells): 103.8% | Cell viability at 1000 nM (%) (MRC5 cells): 110.5%

COC(=O)c1ccc2c(c1)NC(=O)/C2=C(\Nc1ccc(C(=O)NOCCN2CCS(=O)(=O)CC2)cc1)c1ccccc1 [Example 41]
Ki (PDGFRβ [1]): 15 nM | recovery at 5 hr, 10 μM (PAMPA permeability assay; [3]): 59.6% | Papp at 5 h, 10 μM (PAMPA permeability assay; PAMPA, 5 hr): 0.00258 ×10⁻⁶ cm/s | IC50 (PDGFRβ [2]): 37.4 nM | Cell viability at 100 nM (%) (MRC5 cells): 112.3% | Cell viability at 300 nM (%) (MRC5 cells): 96.1% | Cell viability at 1000 nM (%) (MRC5 cells): 86.8%

COC(=O)c1ccc2c(c1)NC(=O)/C2=C(\Nc1ccc(C(=O)NOCCN2CCNC(=O)C2)cc1)c1ccccc1 [Example 42]
Ki (PDGFRβ [1]): 7.06 nM | recovery at 5 hr, 10 μM (PAMPA permeability assay; [3]): 76.8% | Papp at 5 h, 10 μM (PAMPA permeability assay; PAMPA, 5 hr): 0.0264 ×10⁻⁶ cm/s | IC50 (PDGFRβ [2]): 56.3 nM | Cell viability at 100 nM (%) (MRC5 cells): 114.5% | Cell viability at 300 nM (%) (MRC5 cells): 109.6% | Cell viability at 1000 nM (%) (MRC5 cells): 118.3%

COC(=O)c1ccc2c(c1)NC(=O)/C2=C(\Nc1ccc(C(=O)NOCCN2CCC(C#N)CC2)cc1)c1ccccc1 [Example 43]
Ki (PDGFRβ [1]): 32.4 nM | recovery at 5 hr, 10 μM (PAMPA permeability assay; [3]): 75.3% | Papp at 5 h, 10 μM (PAMPA permeability assay; PAMPA, 5 hr): 0.00798 ×10⁻⁶ cm/s | IC50 (PDGFRβ [2]): 25.7 nM | Cell viability at 100 nM (%) (MRC5 cells): 96.5% | Cell viability at 300 nM (%) (MRC5 cells): 91.8% | Cell viability at 1000 nM (%) (MRC5 cells): 83.9%

COC(=O)c1cc2c(cc1C)/C(=C(/Nc1ccc(C(=O)NOCCN3CCCCC3)cc1)c1ccccc1)C(=O)N2 [Example 49]
Ki (PDGFRβ [1]): 31.1 nM | recovery at 5 hr, 10 μM (PAMPA permeability assay; [3]): 75.2% | Papp at 5 h, 10 μM (PAMPA permeability assay; PAMPA, 5 hr): 0.0768 ×10⁻⁶ cm/s | IC50 (PDGFRβ [2]): 40.2 nM | Cell viability at 100 nM (%) (MRC5 cells): 124.5% | Cell viability at 300 nM (%) (MRC5 cells): 110.8% | Cell viability at 1000 nM (%) (MRC5 cells): 69.4%

COC(=O)c1cc2c(cc1C)/C(=C(/Nc1ccc(C(=O)NOCCN3CCC(N(C)C)CC3)cc1)c1ccccc1)C(=O)N2 [Example 50]
Ki (PDGFRβ [1]): 9.24 nM | recovery at 5 hr, 10 μM (PAMPA permeability assay; [3]): 179% | Papp at 5 h, 10 μM (PAMPA permeability assay; PAMPA, 5 hr): 0.0566 ×10⁻⁶ cm/s | IC50 (PDGFRβ [2]): 9.42 nM | Cell viability at 100 nM (%) (MRC5 cells): 107.5% | Cell viability at 300 nM (%) (MRC5 cells): 92.6% | Cell viability at 1000 nM (%) (MRC5 cells): 69.7%

COC(=O)c1cc2c(cc1C)/C(=C(/Nc1ccc(C(=O)NOCCN3CC[C@H](N(C)C)C3)cc1)c1ccccc1)C(=O)N2 [Example 51]
Ki (PDGFRβ [1]): 9.44 nM | % Recovery (PAMPA permeability assay; PAMPA, donor and acceptor compartments): 74.7% | recovery at 5 hr, 10 μM (PAMPA permeability assay; [3]): 62% | Papp at 5 h, 10 μM (PAMPA permeability assay; PAMPA, 5 hr): 0.00306 ×10⁻⁶ cm/s | Mean Papp (PAMPA permeability assay; pH 7, 10 μM, 5 hr): 0.00474 10^−6 cm s^−1 | IC50 (PDGFRβ [2]): 9.39 nM | Cell viability at 100 nM (%) (MRC5 cells): 86.5% | Cell viability at 300 nM (%) (MRC5 cells): 85.8% | Cell viability at 1000 nM (%) (MRC5 cells): 71.2%

COC(=O)c1cc2c(cc1C)/C(=C(/Nc1ccc(C(=O)NOCCN3CCC(OC)CC3)cc1)c1ccccc1)C(=O)N2 [Example 52]
Ki (PDGFRβ [1]): 17 nM | recovery at 5 hr, 10 μM (PAMPA permeability assay; [3]): 76.2% | Papp at 5 h, 10 μM (PAMPA permeability assay; PAMPA, 5 hr): 0.279 ×10⁻⁶ cm/s | IC50 (PDGFRβ [2]): 21.8 nM | Cell viability at 100 nM (%) (MRC5 cells): 62% | Cell viability at 300 nM (%) (MRC5 cells): 50.9% | Cell viability at 1000 nM (%) (MRC5 cells): 59.8%

COC(=O)c1cc2c(cc1C)/C(=C(/Nc1ccc(C(=O)N(C)OCCN(C)CCO)cc1)c1ccccc1)C(=O)N2 [Example 56]
Ki (PDGFRβ [1]): 7.19 nM | recovery at 5 hr, 10 μM (PAMPA permeability assay; [3]): 69.7% | Papp at 5 h, 10 μM (PAMPA permeability assay; PAMPA, 5 hr): 0.719 ×10⁻⁶ cm/s | IC50 (PDGFRβ [2]): 3.95 nM | Cell viability at 100 nM (%) (MRC5 cells): 132% | Cell viability at 300 nM (%) (MRC5 cells): 121% | Cell viability at 1000 nM (%) (MRC5 cells): 70.5%

COC(=O)c1cc2c(cc1C)/C(=C(/Nc1ccc(C(=O)N(C)OCCN3CCN(CCO)CC3)cc1)c1ccccc1)C(=O)N2 [Example 58]
Ki (PDGFRβ [1]): 8.87 nM | recovery at 5 hr, 10 μM (PAMPA permeability assay; [3]): 49.5% | Papp at 5 h, 10 μM (PAMPA permeability assay; PAMPA, 5 hr): 0.0296 ×10⁻⁶ cm/s | IC50 (PDGFRβ [2]): 4.06 nM | Cell viability at 100 nM (%) (MRC5 cells): 110.2% | Cell viability at 300 nM (%) (MRC5 cells): 116.9% | Cell viability at 1000 nM (%) (MRC5 cells): 55.6%

COC(=O)c1cc2c(cc1C)/C(=C(/Nc1ccc(C(=O)N(C)OCCN3C[C@@H]4C[C@H]3CN4)cc1)c1ccccc1)C(=O)N2 [Example 59]
Ki (PDGFRβ [1]): 9.19 nM | recovery at 5 hr, 10 μM (PAMPA permeability assay; [3]): 69.6% | Papp at 5 h, 10 μM (PAMPA permeability assay; PAMPA, 5 hr): 0.0364 ×10⁻⁶ cm/s | IC50 (PDGFRβ [2]): 25.4 nM | Cell viability at 100 nM (%) (MRC5 cells): 123.5% | Cell viability at 300 nM (%) (MRC5 cells): 107.7% | Cell viability at 1000 nM (%) (MRC5 cells): 103.8%

COC(=O)c1cc2c(cc1C)/C(=C(/Nc1ccc(C(=O)N(C)OCCN3C4CCC3CNC4)cc1)c1ccccc1)C(=O)N2 [Example 60]
Ki (PDGFRβ [1]): 13 nM | Papp at 5 h, 10 μM (PAMPA permeability assay; PAMPA, 5 hr): 0.0503 ×10⁻⁶ cm/s | recovery at 5 hr, 10 μM (PAMPA permeability assay; [4]): 69.2% | IC50 (PDGFRβ [2]): 5.6 nM | Cell viability at 100 nM (%) (MRC5 cells): 88.8% | Cell viability at 300 nM (%) (MRC5 cells): 84.4% | Cell viability at 1000 nM (%) (MRC5 cells): 0.2%

COC(=O)c1cc2c(cc1C)/C(=C(/Nc1ccc(C(=O)N(C)OCCN3CC4CCC(C3)N4)cc1)c1ccccc1)C(=O)N2 [Example 61]
Ki (PDGFRβ [1]): 18.3 nM | Papp at 5 h, 10 μM (PAMPA permeability assay; PAMPA, 5 hr): 0.0205 ×10⁻⁶ cm/s | recovery at 5 hr, 10 μM (PAMPA permeability assay; [4]): 64.4% | IC50 (PDGFRβ [2]): 7.84 nM | Cell viability at 100 nM (%) (MRC5 cells): 83% | Cell viability at 300 nM (%) (MRC5 cells): 86.6% | Cell viability at 1000 nM (%) (MRC5 cells): 35.2%
